Test [1] concerns Notch downstream genes (human HES2, HEY1, HEY2). Briefly: Notch downstream gene expression in tumor cells co-cultured with MSC after chemotherapy. As to conditions: co-culture tumor cells after chemotherapy. Type of test: cell-based.
The test system of a further test is MSCs. Briefly: Stress inducers/inhibitors: Jagged1 expression and ROS production in MSCs. Format: cell-based, mouse. From the text:
Next, which signaling pathway is responsible for Jagged1 induction after chemotherapy in osteoblast lineage cells was investigated. Chemotherapy generates many stress responses in cells, including endoplasmic reticulum stress (ER stress), and oxidative stress. Some of the stress conditions have been associated with the regulation of Jagged1 expression (Paul et al., 2014). Several treatments were used to mimic or inhibit these stress responses and then Jagged1 mRNA and protein levels were analyzed within the cells.
293T, H29-Clone #7, MC3T3-E1 Clone #4(denoted as MC3T3 for abbreviation thereafter), MCF7TR, mouse mesenchymal stromal cell (MSC, isolated from BALB/c), 4T1.2, SCP28, SCP28-Vector and -Jagged1 cells, SCP28, RAW264.7, and SUM1315-M1B1 cells were cultured according to American Type Culture Collection instructions and the inventors' previous studies (Ell et al., 2013; Ren et al., 2008; Sethi et al., 2011; Zheng et al., 2014). MSC cells were derived previously and were cultured in DMEM supplemented with 10% FBS, 30 ng/ml bFGF, 100 U/ml penicillin, and 100 μg/ml streptomycin (Ren et al., 2008). All plasmids were transfected into different cell lines using Lipofectamine 2000 following the manufacturer's manual (Life Technologies, CA, USA). To generate stable cell lines, a pLEX-MCS based lentivirus vector or a pMSCV-hygro based retrovirus vector was used in our study. Lentiviruses were packaged in HEK293T cells while retroviruses were packaged by using H29 cell line. Conditional media from these packaging cells containing viruses were collected 2 days and 3 days after transfection. Recipient cell lines were exposed to conditional media containing viruses supplemented with 2 μg/mL Polybrene for 48 h. Infected cells were selected with puromycin or hygromycin to generate stable expressing cell lines. 293T and H29clone #7 are cell lines from female humans. All other cancer cell lines are breast cancer cell lines from either female human or mouse.

Another test deals with SUM1315-M1B1 cells. Nature of the test: SUM1315-M1B1 bone metastasis model. Type of test: in vivo, athymic nude mice. Conditions: Week 4. The text has this: FIG. 9. 15D11 synergizes with chemotherapy to inhibit bone metastasis in the SUM1315-M1B1 model. (A) Western blot analysis of Jagged1 protein expression level in SUM1315-M1B1, SPC2, SCP28-Vector, and SCP28-Jagged1 cells. β-actin was used as loading control. (B) Schematic representation of the experimental procedure. In brief, SUM1315-M1B1 cells were IC injected into 4-6 weeks female athymic nude mice to generate bone metastases. One week later, mice were randomized into four groups and treated with respective therapeutic agents. Bone metastasis progression was monitored by weekly BLI imaging until the experimental endpoint (4 weeks after injection). (C) Representative BLI and X-ray images of mice in Week 4 right before euthanizing the mice. (D) Quantification of bone metastasis burden each week based on BLI imaging from the experiment. […] (E) Representative H&E staining and TRAP staining images of hind limb bones from experiment in A were shown. Scale bar: 100 μm. […] AU: arbitrary unit. n=10, **p<0.01 by Student's t-test. (G) Quantification of the number of TRAP-positive osteoclasts per field. n=5, **p<0.01 by Student's t-test.
To validate whether the observed synergy of combined treatment can also be observed in other models of bone metastasis beyond the MDA-MB-231 series, the bone metastatic SUM1315-M1B1 cell line was used. […]

For `N.N.[Cl][Pt][Cl]` [cisplatin], the “Notch downstream genes HES2, HEY1, HEY2” value in test [1] is given as “significantly upregulated”. In addition, the “ROS production in MSCs” value in the test on MSCs is given as “induced ROS production”.

For the molecule `CC(=O)O[C@H]1C(=O)[C@@]2(C)[C@H]([C@H](OC(=O)c3ccccc3)[C@]3(O)C[C@H](OC(=O)[C@H](O)[C@@H](NC(=O)c4ccccc4)c4ccccc4)C(C)=C1C3(C)C)[C@]1(OC(C)=O)CO[C@@H]1C[C@@H]2O` [paclitaxel], the “bone metastasis burden (BLI signal)” value in the test with SUM1315-M1B1 cells is on record as “minor reduction of BLI signal”.

The values are drawn from patent publication US20200237909A1, “METHODS OF TREATING OR PREVENTING BREAST CANCER METASTASES USING ANTIBODIES TO JAGGED1 AND CHEMOTHERAPEUTIC AGENTS” (The Trustees of Princeton University, priority 2017, published 2020).
